Data on three compounds can be found in ChEMBL document CHEMBL1127504, “Synthesis and evaluation of 4-(2'-methoxyphenyl)-1-[2'-[N-(2"-pyridinyl)-p- iodobenzamido]ethyl]piperazine (p-MPPI): a new iodinated 5-HT1A ligand” (J Med Chem, 1994).

Usually pKi stands for the Ki on a negative log10 scale, so that one unit is a factor of ten. A low value points to a large Ki. Usually pKd stands for the negative decadic logarithm of the Kd, by convention in mol/L. Low readings indicate a high Kd, high ones a low Kd.

Experiment [1] has as its target T1, 5-hydroxytryptamine receptor 1A (Rattus norvegicus, UniProt P19327).
T1 sequence (P19327 whole entry): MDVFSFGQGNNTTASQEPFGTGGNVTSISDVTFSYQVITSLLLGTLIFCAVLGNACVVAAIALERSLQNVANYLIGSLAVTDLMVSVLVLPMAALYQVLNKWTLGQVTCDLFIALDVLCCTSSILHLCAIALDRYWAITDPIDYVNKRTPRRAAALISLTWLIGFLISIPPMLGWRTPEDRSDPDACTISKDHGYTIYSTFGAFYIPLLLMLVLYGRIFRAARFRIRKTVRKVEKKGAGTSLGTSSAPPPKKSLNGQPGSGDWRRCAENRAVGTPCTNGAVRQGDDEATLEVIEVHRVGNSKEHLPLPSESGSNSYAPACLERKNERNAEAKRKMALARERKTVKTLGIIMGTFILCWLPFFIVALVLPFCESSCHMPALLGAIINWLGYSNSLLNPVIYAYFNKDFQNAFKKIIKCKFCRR
In words: biochemical.
Description: Inhibition of binding of [125I]8-OH-PIPAT ligand to 5-hydroxytryptamine 1A receptor of rat hippocampal homogenates

Experiment [2] concerns the target T2, 5-hydroxytryptamine receptor 1A (Rattus norvegicus) (UniProt P19327).
T2 sequence (whole entry): T1 sequence (P19327 whole entry)
In kind it is tissue-based. As to conditions: Hippocampus.

Experiment [3] addresses T1, 5-hydroxytryptamine receptor 1A. In kind it is tissue-based, Hippocampus.
Experiment [4] has the same target. It is filed as tissue-based, Hippocampus. The source holds these as a separate data set.

Structures are written as SMILES. pKd, pKi: −log10 of the molar value.

`CCCN(C/C=C/I)C1CCc2cccc(O)c2C1` (centres undefined): the pKi in experiment [1] was 9.42. In experiment [2], this compound came in with a Bmax (fM (mg of protein)-1) of 310. Regarding `COc1ccccc1N1CCN(CCN(C(=O)c2ccc(I)cc2)c2ccccn2)CC1`, the pKd in experiment [3] was 9.52. For the compound `COc1ccccc1N1CCN(CCCCNC(=O)C23C[C@H]4C[C@@H](C2)C[C@@H](C3)C4)CC1`, in experiment [4], the pKd was 9.40.
